Results published in patent US20220167615A1, “FUNGICIDAL COMPOSITIONS” (SYNGENTA CROP PROTECTION AG, priority 2019, published 2022).
Where two headings read alike, the source gives them in different places.

Experiments:
[1] = system: Puccinia recondita f. sp. tritici; assay: Puccinia recondita f. sp. tritici / wheat / leaf disc preventative (Brown rust); type: in vivo; details: foliar, read-out: percent disease control compared to untreated
[2] = system: Phakopsora pachyrhizi; assay: Phakopsora pachyrhizi / soybean / leaf disc preventative (Asian soybean rust); type: in vivo; details: foliar, read-out: percent disease control compared to untreated
[3] = system: Mycosphaerella arachidis (Cercospora arachidicola); assay: Mycosphaerella arachidis (Cercospora arachidicola) / liquid culture (early leaf spot); type: cell-based; details: read-out: disease control (inhibition of growth, photometric)
[4] = system: Mycosphaerella graminicola (Septoria tritici); assay: Mycosphaerella graminicola (Septoria tritici) / liquid culture (Septoria blotch); type: cell-based; details: Zymoseptoria tritici, read-out: disease control (inhibition of growth, photometric)
[5] = system: Monographella nivalis (Microdochium nivale); assay: Monographella nivalis (Microdochium nivale) / liquid culture (foot rot cereals); type: cell-based; details: read-out: disease control (inhibition of growth, photometric)
[6] = system: Glomerella lagenarium (Colletotrichum lagenarium); assay: Glomerella lagenarium (Colletotrichum lagenarium) / liquid culture (Anthracnose); type: cell-based; details: Colletotrichum orbiculare, read-out: disease control (inhibition of growth, photometric)
[7] = system: Botryotinia fuckeliana (Botrytis cinerea); assay: Botryotinia fuckeliana (Botrytis cinerea) / liquid culture (Gray mould); type: cell-based; details: read-out: disease control (inhibition of growth, photometric)
[8] = system: Magnaporthe grisea (Pyricularia oryzae); assay: whole plant or invertebrate; type: in vivo; details: foliar, read-out: percent disease control compared to untreated
[9] = system: Phaeosphaeria nodorum (Septoria nodorum); assay: Phaeosphaeria nodorum (Septoria nodorum) / wheat / leaf disc preventative (Glume blotch); type: in vivo; details: Parastagonospora nodorum, foliar, read-out: percent disease control compared to untreated
[10] = 200 ppm in the applied formulation, wheat leaf segments cv. Kanzler, inoculated 1 day after application, assessed 7-9 days after application
[11] = 200 ppm in the applied formulation, soybean leaf disks, inoculated one day after application, assessed 12 to 14 days after application
[12] = 20 ppm in the applied formulation, PDB, 24° C., 4-5 days after application, vs untreated control
[13] = 20 ppm in the applied formulation, PDB, 24° C., 4 to 5 days after application, vs untreated control
[14] = 20 ppm in the applied formulation, PDB, 24° C., 3 to 4 days after application, vs untreated control
[15] = 20 ppm in the applied formulation, Vogels broth, 24° C., 3-4 days after application, vs untreated control
[16] = 200 ppm in the applied formulation, wheat leaf segments cv. Kanzler, inoculated 2 days after application, assessed 5-7 days after application

COc1ccnc(C(=O)N[C@@H](C)C(=O)OC(C)C(C)n2ccc3c(Br)ccc(F)c32)c1O (stereo partly drawn) [X.02, [2-(4-bromo-7-fluoro-indol-1-yl)-1-methyl-propyl] (2S)-2-[(3-hydroxy-4-methoxy-pyridine-2-carbonyl)amino]propanoate]
≥ 80%: pest or weed control at 200 ppm [1, 10] | pest or weed control at 200 ppm [2, 11] | inhibition at 20 ppm [3, 12] | inhibition at 20 ppm [4, 13] | inhibition at 20 ppm [5, 12] | inhibition at 20 ppm [6, 14] | inhibition at 20 ppm [7, 15]

COc1ccnc(C(=O)N[C@@H](C)C(=O)OC(C)C(C)c2ccc(Cl)s2)c1O (stereo partly drawn) [X.14, [2-(5-chloro-2-thienyl)-1-methyl-propyl] (2S)-2-[(3-hydroxy-4-methoxy-pyridine-2-carbonyl)amino]propanoate]
≥ 80%: pest or weed control at 200 ppm [1, 10] | inhibition at 20 ppm [3, 12] | inhibition at 20 ppm [4, 13] | inhibition at 20 ppm [5, 12] | inhibition at 20 ppm [6, 14] | inhibition at 20 ppm [7, 15]

COc1ccnc(C(=O)N[C@@H](C)C(=O)OC(C)C(C)c2ccc3ccccc3n2)c1O (stereo partly drawn) [X.10, [1-methyl-2-(2-quinolyl)propyl] (2S)-2-[(3-hydroxy-4-methoxy-pyridine-2-carbonyl)amino]propanoate]
≥ 80%: pest or weed control at 200 ppm [1, 10] | inhibition at 20 ppm [4, 13] | inhibition at 20 ppm [5, 12] | inhibition at 20 ppm [6, 14] | inhibition at 20 ppm [7, 15]

COc1ccnc(C(=O)N[C@@H](C)C(=O)O[C@@H](C)C2(c3cccc4ccccc34)CC2)c1OCOC(C)=O [X.04, [(1S)-1-[1-(1-naphthyl)cyclopropyl]ethyl] (2S)-2-[[3-(acetoxymethoxy)-4-methoxy-pyridine-2-carbonyl]amino]propanoate]
≥ 80%: pest or weed control at 200 ppm [8] | pest or weed control at 200 ppm [1, 10] | pest or weed control at 200 ppm [2, 11] | inhibition at 20 ppm [3, 12] | inhibition at 20 ppm [4, 13] | inhibition at 20 ppm [5, 12] | pest or weed control at 200 ppm [9, 16] | inhibition at 20 ppm [6, 14]

COc1ccnc(C(=O)N[C@@H](C)C(=O)OC(C)C(C)(C)c2ccc(Br)cc2)c1O (stereo partly drawn) [X.08, [2-(4-bromophenyl)-1,2-dimethyl-propyl] (2S)-2-[(3-hydroxy-4-methoxy-pyridine-2-carbonyl)amino]propanoate]
≥ 80%: pest or weed control at 200 ppm [8] | pest or weed control at 200 ppm [1, 10] | inhibition at 20 ppm [3, 12] | inhibition at 20 ppm [4, 13] | inhibition at 20 ppm [5, 12] | inhibition at 20 ppm [6, 14] | inhibition at 20 ppm [7, 15]

COc1ccnc(C(=O)N[C@@H](C)C(=O)OC(C)C(C)n2ccc3c(F)ccc(Br)c32)c1OC(C)=O (stereo partly drawn) [X.16, [2-(7-bromo-4-fluoro-indol-1-yl)-1-methyl-propyl] (2S)-2-[(3-acetoxy-4-methoxy-pyridine-2-carbonyl)amino]propanoate]
≥ 80%: pest or weed control at 200 ppm [1, 10] | pest or weed control at 200 ppm [2, 11] | inhibition at 20 ppm [3, 12] | inhibition at 20 ppm [4, 13] | inhibition at 20 ppm [5, 12] | inhibition at 20 ppm [6, 14]

COc1ccnc(C(=O)N[C@@H](C)C(=O)OC(C)C2(c3ccccc3)CCCCC2)c1O (stereo partly drawn) [X.09, 1-(1-phenylcyclohexyl)ethyl (2S)-2-[(3-hydroxy-4-methoxy-pyridine-2-carbonyl)amino]propanoate]
≥ 80%: pest or weed control at 200 ppm [8] | pest or weed control at 200 ppm [1, 10] | inhibition at 20 ppm [3, 12] | inhibition at 20 ppm [4, 13] | inhibition at 20 ppm [5, 12] | inhibition at 20 ppm [6, 14] | inhibition at 20 ppm [7, 15]

COc1ccnc(C(=O)N[C@@H](C)C(=O)OC(C)C(C)c2ncc(Cl)cc2Cl)c1O (stereo partly drawn) [X.03, [2-(3,5-dichloro-2-pyridyl)-1-methyl-propyl] (2S)-2-[(3-hydroxy-4-methoxy-pyridine-2-carbonyl)amino]propanoate]
≥ 80%: pest or weed control at 200 ppm [1] | pest or weed control at 200 ppm [2] | inhibition at 20 ppm [3] | inhibition at 20 ppm [4] | inhibition at 20 ppm [5] | pest or weed control at 200 ppm [9] | inhibition at 20 ppm [6] | inhibition at 20 ppm [7]

COc1ccnc(C(=O)N[C@@H](C)C(=O)O[C@@H](C)C2(c3cccc4ccccc34)CC2)c1OC(C)=O [X.17, [(1S)-1-[1-(1-naphthyl)cyclopropyl]ethyl] (2S)-2-[(3-acetoxy-4-methoxy-pyridine-2-carbonyl)amino]propanoate]
≥ 80%: pest or weed control at 200 ppm [8] | pest or weed control at 200 ppm [1, 10] | pest or weed control at 200 ppm [2, 11] | inhibition at 20 ppm [3, 12] | inhibition at 20 ppm [4, 13] | inhibition at 20 ppm [5, 12] | pest or weed control at 200 ppm [9, 16] | inhibition at 20 ppm [6, 14] | inhibition at 20 ppm [7, 15]

COc1ccnc(C(=O)N[C@@H](C)C(=O)OC(C)C(C)n2ccc3cccc(Br)c32)c1O (stereo partly drawn) [X.11, [2-(7-bromoindol-1-yl)-1-methyl-propyl] (2S)-2-[(3-hydroxy-4-methoxy-pyridine-2-carbonyl)amino]propanoate]
≥ 80%: pest or weed control at 200 ppm [1, 10] | pest or weed control at 200 ppm [2, 11] | inhibition at 20 ppm [3, 12] | inhibition at 20 ppm [4, 13] | inhibition at 20 ppm [5, 12] | inhibition at 20 ppm [6, 14]

COc1ccnc(C(=O)N[C@@H](C)C(=O)OC(C)C(C)n2ccc3c(Cl)ccc(Cl)c32)c1OC(C)=O (stereo partly drawn) [X.15, [2-(4,7-dichloroindol-1-yl)-1-methyl-propyl] (2S)-2-[(3-acetoxy-4-methoxy-pyridine-2-carbonyl)amino]propanoate]
≥ 80%: pest or weed control at 200 ppm [1, 10] | inhibition at 20 ppm [3, 12] | inhibition at 20 ppm [4, 13] | inhibition at 20 ppm [5, 12] | inhibition at 20 ppm [6, 14]

COc1ccnc(C(=O)N[C@@H](C)C(=O)OC(C)C(C)n2ccc3ccc(C(F)(F)F)cc32)c1O (stereo partly drawn) [X.12, [1-methyl-2-[6-(trifluoromethyl)indol-1-yl]propyl] (2S)-2-[(3-hydroxy-4-methoxy-pyridine-2-carbonyl)amino]propanoate]
≥ 80%: pest or weed control at 200 ppm [8] | pest or weed control at 200 ppm [1, 10] | inhibition at 20 ppm [3, 12] | inhibition at 20 ppm [4, 13] | inhibition at 20 ppm [5, 12] | inhibition at 20 ppm [6, 14] | inhibition at 20 ppm [7, 15]

COc1ccnc(C(=O)N[C@@H](C)C(=O)OC(C)C(C)c2ncc(Cl)cc2Cl)c1OCOC(=O)C(C)C (stereo partly drawn) [X.06, [2-[[(1S)-2-[2-(3,5-dichloro-2-pyridyl)-1-methyl-propoxy]-1-methyl-2-oxo-ethyl]carbamoyl]-4-methoxy-3-pyridyl]oxymethyl 2-methylpropanoate]
≥ 80%: pest or weed control at 200 ppm [1, 10] | pest or weed control at 200 ppm [2, 11] | inhibition at 20 ppm [3, 12] | inhibition at 20 ppm [4, 13] | inhibition at 20 ppm [5, 12]

COc1ccnc(C(=O)N[C@@H](C)C(=O)O[C@@H](C)C2(c3cccc4ccccc34)CC2)c1O [X.05, [(1S)-1-[1-(1-naphthyl)cyclopropyl]ethyl] (2S)-2-[(3-hydroxy-4-methoxy-pyridine-2-carbonyl)amino]propanoate]
≥ 80%: pest or weed control at 200 ppm [8] | pest or weed control at 200 ppm [1, 10] | pest or weed control at 200 ppm [2, 11] | inhibition at 20 ppm [3, 12] | inhibition at 20 ppm [4, 13] | inhibition at 20 ppm [5, 12] | pest or weed control at 200 ppm [9, 16] | inhibition at 20 ppm [6, 14] | inhibition at 20 ppm [7, 15]

COc1ccnc(C(=O)N[C@@H](C)C(=O)OC(C)C(C)n2ncc3ccccc32)c1O (stereo partly drawn) [X.13, (2-indazol-1-yl-1-methyl-propyl) (2S)-2-[(3-hydroxy-4-methoxy-pyridine-2-carbonyl)amino]propanoate]
≥ 80%: inhibition at 20 ppm [4, 13]

COc1ccnc(C(=O)N[C@@H](C)C(=O)O[C@@H](C)C2(c3cccc4ccccc34)CC2)c1OCOC(=O)C(C)C [X.07, [4-methoxy-2-[[(1S)-1-methyl-2-[(1S)-1-[1-(1-naphthyl)cyclopropyl]ethoxy]-2-oxo-ethyl]carbamoyl]-3-pyridyl]oxymethyl 2-methylpropanoate]
≥ 80%: pest or weed control at 200 ppm [8] | pest or weed control at 200 ppm [1, 10] | inhibition at 20 ppm [3, 12] | inhibition at 20 ppm [4, 13] | pest or weed control at 200 ppm [9, 16] | inhibition at 20 ppm [6, 14]

COc1ccnc(C(=O)N[C@@H](C)C(=O)OC(C)C2(c3ccc(Cl)cc3)CCC2)c1O (stereo partly drawn) [X.01, 1-[1-(4-chlorophenyl)cyclobutyl]ethyl(2S)-2-[(3-hydroxy-4-methoxy-pyridine-2-carbonyl)amino]propanoate]
≥ 80%: pest or weed control at 200 ppm [1, 10] | inhibition at 20 ppm [3, 12] | inhibition at 20 ppm [4, 13] | inhibition at 20 ppm [5, 12] | inhibition at 20 ppm [6, 14] | inhibition at 20 ppm [7, 15]
